Laboratory results published in patent US9221832B2, “Heterocyclic amide derivatives as P2X7 receptor antagonists” (ACTELION PHARMACEUTICALS LTD., priority 2011, dated 2015).

Target: human recombinant P2X7 receptor (Homo sapiens (Human), UniProt Q99572)
Experiment: YO-PRO assay: P2X7 receptor antagonistic activity
Format: cell-based
Conditions: HEK cells expressing human P2X7

human recombinant P2X7 receptor, sequence (Q99572 whole entry): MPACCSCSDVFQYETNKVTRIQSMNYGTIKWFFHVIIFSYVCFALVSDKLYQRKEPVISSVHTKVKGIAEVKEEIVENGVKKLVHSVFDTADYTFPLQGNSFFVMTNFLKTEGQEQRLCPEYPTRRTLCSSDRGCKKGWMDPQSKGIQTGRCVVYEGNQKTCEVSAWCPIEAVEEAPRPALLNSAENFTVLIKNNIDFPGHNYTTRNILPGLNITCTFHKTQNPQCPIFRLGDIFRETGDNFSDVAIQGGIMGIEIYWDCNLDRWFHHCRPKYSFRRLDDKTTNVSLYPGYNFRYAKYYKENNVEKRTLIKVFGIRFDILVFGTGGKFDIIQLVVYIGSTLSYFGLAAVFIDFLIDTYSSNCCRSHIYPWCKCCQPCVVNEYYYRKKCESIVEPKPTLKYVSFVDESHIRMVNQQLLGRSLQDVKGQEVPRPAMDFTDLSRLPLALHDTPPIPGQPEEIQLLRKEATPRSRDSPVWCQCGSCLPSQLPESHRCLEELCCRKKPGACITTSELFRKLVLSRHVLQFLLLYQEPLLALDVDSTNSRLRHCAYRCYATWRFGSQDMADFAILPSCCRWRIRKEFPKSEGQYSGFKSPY

Row | IC50 [nM] | SMILES
1 | > 8630 | O=C(COc1ccc(Cl)c(Cl)c1)NC1COc2ncccc21 (racemic) [Example 141, rac-2-(3,4-Dichloro-phenoxy)-N-(2,3-dihydro-furo[2,3-b]pyridin-3-yl)-acetamide]
2 | 65 | O=C(Cc1cccc(C(F)(F)F)c1Cl)NC1COc2nc(Cl)ccc21 (racemic) [Example 143, rac-N-(6-Chloro-2,3-dihydro-furo[2,3-b]pyridin-3-yl)-2-(2-chloro-3-trifluoromethyl-phenyl)-acetamide]
3 | 165 | O=C(Cc1cccc(C(F)(F)F)c1Cl)NC1COc2c[n+]([O-])ccc21 (racemic) [Example 148, rac-2-(2-Chloro-3-trifluoromethyl-phenyl)-N-(6-oxy-2,3-dihydro-furo[2,3-c]pyridin-3-yl)-acetamide]
4 | 6690 | Cc1cc(Cl)cc(Cl)c1CC(=O)NC1COc2nccc(C(F)(F)F)c21 (racemic) [Example 151, rac-2-(2,4-Dichloro-6-methyl-phenyl)-N-(4-trifluoromethyl-2,3-dihydro-furo[2,3-b]pyridin-3-yl)-acetamide]
5 | 861 | O=C(Cc1cccc(C(F)(F)F)c1Cl)NC1COc2nccc(C(F)(F)F)c21 (racemic) [Example 152, rac-2-(2-Chloro-3-trifluoromethyl-phenyl)-N-(4-trifluoromethyl-2,3-dihydro-furo[2,3-b]pyridin-3-yl)-acetamide]
6 | 9.9 | O=C(Cc1cccc(C(F)(F)F)c1Cl)NC1COc2ncccc21 (single isomer, unassigned) [Example 73, 2-(2-Chloro-3-trifluoromethyl-phenyl)-N-(2,3-dihydro-furo[2,3-b]pyridin-3-yl)-acetamide]
7 | 4.7 | O=C(Cc1cccc(C(F)(F)F)c1Cl)NC1COc2ncccc21 (single isomer, unassigned) [Example 74, 2-(2-Chloro-3-trifluoromethyl-phenyl)-N-(2,3-dihydro-furo[2,3-b]pyridin-3-yl)-acetamide]
8 | 29 | N#Cc1cccc(CC(=O)NC2COc3ncccc32)c1Cl (single isomer, unassigned) [Example 98, 2-(2-Chloro-3-cyano-phenyl)-N-2,3-dihydro-furo[2,3-b]pyridin-3-yl-acetamide]
9 | 40 | N#Cc1cccc(CC(=O)NC2COc3ncccc32)c1Cl (single isomer, unassigned) [Example 99, 2-(2-Chloro-3-cyano-phenyl)-N-2,3-dihydro-furo[2,3-b]pyridin-3-yl-acetamide]
10 | 598 | Cc1cc(Cl)cc(Cl)c1CC(=O)NC1COc2cnccc21 (single isomer, unassigned) [Example 101, 2-(2,4-Dichloro-6-methyl-phenyl)-N-2,3-dihydro-furo[2,3-c]pyridin-3-yl-acetamide]
11 | 2.2 | Cc1cc(Cl)cc(Cl)c1CC(=O)NC1COc2cnccc21 (single isomer, unassigned) [Example 102, 2-(2,4-Dichloro-6-methyl-phenyl)-N-2,3-dihydro-furo[2,3-c]pyridin-3-yl-acetamide]

Second part, the compound before the results:

Row | SMILES | IC50 [nM]
12 | Cc1ccc(OCC(=O)NC2COc3ncccc32)c(C)c1 (racemic) [Example 142, rac-N-(2,3-Dihydro-furo[2,3-b]pyridin-3-yl)-2-(2,4-dimethyl-phenoxy)-acetamide] | > 9950
13 | Cc1cc(Cl)cc(Cl)c1CC(=O)NC1COc2nc(Cl)ccc21 (racemic) [Example 144, rac-N-(6-Chloro-2,3-dihydro-furo[2,3-b]pyridin-3-yl)-2-(2,4-dichloro-6-methyl-phenyl)-acetamide] | 50
14 | Cc1cc(Cl)cc(Cl)c1CC(=O)NC1COc2ncccc21 (single isomer, unassigned) [Example 6, 2-(2,4-Dichloro-6-methyl-phenyl)-N-(2,3-dihydro-furo[2,3-b]pyridin-3-yl)-acetamide] | 16
15 | Cc1cc(Cl)cc(Cl)c1CC(=O)NC1COc2ncccc21 (single isomer, unassigned) [Example 7, 2-(2,4-Dichloro-6-methyl-phenyl)-N-(2,3-dihydro-furo[2,3-b]pyridin-3-yl)-acetamide] | 3.5
16 | Cc1cc(Cl)cc(Cl)c1CC(=O)NC1CCOc2ncccc21 (single isomer, unassigned) [Example 28, 2-(2,4-Dichloro-6-methyl-phenyl)-N-(3,4-dihydro-2H-pyrano[2,3-b]pyridin-4-yl)-acetamide] | 29
17 | Cc1cc(Cl)cc(Cl)c1CC(=O)NC1CCOc2ncccc21 (single isomer, unassigned) [Example 29, 2-(2,4-Dichloro-6-methyl-phenyl)-N-(3,4-dihydro-2H-pyrano[2,3-b]pyridin-4-yl)-acetamide] | 172
18 | CC(C(=O)NC1COc2ncccc21)c1ccc(Cl)cc1Cl (single isomer, unassigned) [Example 92, 2-(2,4-Dichloro-phenyl)-N-2,3-dihydro-furo[2,3-b]pyridin-3-yl-propionamide] | 9
19 | CC(C(=O)NC1COc2ncccc21)c1ccc(Cl)cc1Cl (single isomer, unassigned) [Example 93, 2-(2,4-Dichloro-phenyl)-N-2,3-dihydro-furo[2,3-b]pyridin-3-yl-propionamide] | 137
20 | CC(C(=O)NC1COc2ncccc21)c1ccc(Cl)cc1Cl (single isomer, unassigned) [Example 94, 2-(2,4-Dichloro-phenyl)-N-2,3-dihydro-furo[2,3-b]pyridin-3-yl-propionamide] | 11
21 | CC(C(=O)NC1COc2ncccc21)c1ccc(Cl)cc1Cl (single isomer, unassigned) [Example 95, 2-(2,4-Dichloro-phenyl)-N-2,3-dihydro-furo[2,3-b]pyridin-3-yl-propionamide] | 104
22 | O=C(NC1COc2ncccc21)C1CCc2cc(Cl)cc(Cl)c21 (single isomer, unassigned) [Example 146, 5,7-dichloro-N-(2,3-dihydrofuro[2,3-b]pyridin-3-yl)-2,3-dihydro-1H-indene-1-carboxamide] | 160
23 | O=C(NC1COc2ncccc21)C1CCc2cc(Cl)cc(Cl)c21 (single isomer, unassigned) [Example 147, 5,7-dichloro-N-(2,3-dihydrofuro[2,3-b]pyridin-3-yl)-2,3-dihydro-1H-indene-1-carboxamide] | 40
24 | CC(C(=O)NC1COc2ncccc21)c1ccc(Cl)cc1 (centres unmarked) [Example 23, 2-(4-Chloro-phenyl)-N-(2,3-dihydro-furo[2,3-b]pyridin-3-yl)-propionamide] | 828
25 | CC(C(=O)NC1CCOc2ncccc21)c1ccc(Cl)cc1 (centres unmarked) [Example 64, 2-(4-Chloro-phenyl)-N-(3,4-dihydro-2H-pyrano[2,3-b]pyridin-4-yl)-propionamide] | 1520
26 | O=C(NC1COc2ncccc21)C(CO)c1ccc(Cl)cc1Cl (centres unmarked) [Example 79, 2-(2,4-Dichloro-phenyl)-N-2,3-dihydro-furo[2,3-b]pyridin-3-yl-3-hydroxy-propionamide] | 21
27 | O=C(NC1COc2ncccc21)C(CN1CCCC1)c1ccc(Cl)cc1Cl (centres unmarked) [Example 81, 2-(2,4-Dichloro-phenyl)-N-2,3-dihydro-furo[2,3-b]pyridin-3-yl-3-pyrrolidin-1-yl-propionamide] | 1970
28 | CCC(C(=O)NC1COc2ncccc21)c1ccc(Cl)cc1Cl (centres unmarked) [Example 84, 2-(2,4-Dichloro-phenyl)-N-2,3-dihydro-furo[2,3-b]pyridin-3-yl-butyramide] | 55
29 | CC(C(=O)NC1COc2ncccc21)c1ccc(Cl)cc1Cl (centres unmarked) [Example 85, 2-(2,4-Dichloro-phenyl)-N-2,3-dihydro-furo[2,3-b]pyridin-3-yl-propionamide] | 15
30 | [2H]C([2H])([2H])C(C(=O)NC1COc2ncccc21)c1ccc(Cl)cc1Cl (centres unmarked) [Example 86, 2-(2,4-Dichloro-phenyl)-2-trideuteromethyl-N-2,3-dihydro-furo[2,3-b]pyridin-3-yl-acetamide] | 33
31 | O=C(NC1COc2ncccc21)C1CCc2cc(Cl)cc(Cl)c21 (centres unmarked) [Example 130, 5,7-dichloro-N-(2,3-dihydrofuro[2,3-b]pyridin-3-yl)-2,3-dihydro-1H-indene-1-carboxamide] | 137
32 | O=C(NC1COc2ncccc21)C1Cc2ccc(Cl)cc2C1 (centres unmarked) [Example 149, 5-chloro-N-(2,3-dihydrofuro[2,3-b]pyridin-3-yl)-2,3-dihydro-1H-indene-2-carboxamide] | 4690
